Experimental data as given in article PMC11650638, “In Vivo Activity Profiling of Biosynthetic Darobactin D22 against Critical Gram-Negative Pathogens” (ACS Infectious Diseases, 2024).
Values after ≈ are worked out from the molar mass of the structure shown. Like-named read-outs stand apart in the source and are kept apart here. Each block holds one molecule with its values, some of them ahead of it.

Tests used:
[1] = test system: Acinetobacter baumannii ATCC17978; assay: microbe, parasite or virus in culture; format: cell-based
Method: (§1) MIC90 determination was performed
(§2) MIC against Clinical Isolates of E. coli.
(§3) Zebrafish Infection Model
(§4) carbenicillin (Carl Roth, Karlsruhe, Germany).3
(§5) Minimum inhibitory concentrations

[2] = test system: Escherichia coli ATCC25922; parameters: method as in PMID 36308277, PMID 38093695; settings: cited from earlier work
[3] = test system: Acinetobacter baumannii DSM30008; parameters: method as in PMID 36308277, PMID 38093695; settings: cited from earlier work
[4] = test system: Pseudomonas aeruginosa PAO1; parameters: method as in PMID 36308277, PMID 38093695; settings: cited from earlier work
[5] = test system: Acinetobacter baumannii ATCC17978; assay: Zebrafish embryo model of A. baumannii infection; settings: 10 mg/kg, caudal vein microinjection 3 hpi
Escherichia coli 106-09 = assay: Murine peritonitis/sepsis model; format: in vivo, CD-1 female mice; settings: 40 mg/kg SC q6h
Method: Mice were infected IP (Figure S7). […]
(§6) reduce stress and harm arising from experimental procedures, including use of analgesia, access to wet food and additional bedding. The room temperature, relative humidity and maximum background noise were maintained according to Home Office Code of Practice. Mice were exposed to 12-hour light/dark […]
(§7) Mice were immunosuppressed using cyclophosphamide administered subcutaneously (SC) at 150 mg/kg on day minus 4 and at 100 mg/kg on day minus 1 relative to the day of infection. Following […]
CFU/thigh P. aeruginosa PAO1 by intramuscular (IM) injection of 50 µL bacterial suspension into both thighs. Following infection, a single dose of carprofen was administered SC to provide pain relief.
One hour post-inoculation, one group of mice were euthanized to quantify the pre-treatment bacterial burden. […]
At eight or 25 hours post infection, mice were euthanized by overdose of pentobarbitone and death confirmed by cervical dislocation. […] The bacterial burden was quantified following overnight incubation of agar plates at 37°C. For analytical purposes, burdens from individual thighs were counted as independent […]
intravenously. Mice were observed during the study and scored 0 – 4 based on their behavior and clinical signs of discomfort and euthanized at the humane endpoint as a surrogate marker for death. […]

Escherichia coli = assay: MIC50/MIC90 determination and MIC against isolates of E. coli; format: cell-based; settings: Escherichia coli
Pseudomonas aeruginosa = assay: MIC50/MIC90 determination and MIC against isolates of P. aeruginosa; format: cell-based; settings: Pseudomonas aeruginosa, read-out: MIC
Acinetobacter baumannii = assay: MIC50/MIC90 determination and MIC against isolates of A. baumannii; format: cell-based; settings: Acinetobacter baumannii, read-out: MIC
Klebsiella pneumoniae = assay: MIC50/MIC90 determination and MIC against isolates of K. pneumoniae; format: cell-based; settings: Klebsiella pneumoniae
[6] = test system: Pseudomonas aeruginosa PAO1; assay: Murine neutropenic thigh infection model; format: in vivo, CD-1 mice; settings: 8 h, 20 mg/kg
Method: Zg, Committee on Animal Research Ethics-Zagreb) in collaboration with the Croatian Competent Authority and the National Ethics Committee, granting this project a 5-year authorisation, in compliance […]
Animals: The study was performed in male, 6–7 weeks old C57BL/6 mice. Animals were housed in a temperature-controlled room (22±2°C), relative humidity 55±10%, 15–20 air changes per hour, atrificial […]
Sampling: Serial or terminal blood samples were collected into EDTA-coated tubes at the following […]
into Precellys® tubes for all animals. Additional, terminal tissue samples were taken at 1 h for the IV and IP groups. For the SC and IT groups, terminal tissue samples were further taken at 2, 4, 8 h. Urine […]
samples (3 animals) were collected into emtpy tubes and kept chilled, followed by centrifugation at 3000 rpm, 10 min, 4°C. Total urine volume was recorded. […]
as §6, §7

[7] = test system: Escherichia coli clinical isolates; assay: MIC against clinical isolates of E. coli (Statens Serum Institut, CLSI); format: cell-based
Method: as §1, §2, §3, §4, §5

Escherichia coli C175-94 = assay: Murine urinary tract infection model; format: in vivo, C3H/HeNHsd mice; settings: positive control, BID, day 4
Method: One IV dosing arm at 5 mg/kg was included for comparison. Mice were treated for 3 days post-inoculation, and the bacterial burden was determined on day 4.
In vivo urinary tract infection model. The murine urinary tract infection model was conducted at Statens Serum Institut in Copenhagen, Denmark under the supervision of the Danish Animal Ethical […]
Bacterial challenge organism: The challenge organism was Escherichia coli C175-94 (serotype O8:K48:H4), a clinical isolate elaborating type 1 fimbriae, previously used for developing and validating the urinary tract infecti on model.7
Animals: Upon arrival to Statens Serum Institut animal facility, female C3H/HeNHsd mice 5 -6 weeks old (Envigo, Netherlands), were randomized to 8 mice per cage and acclimatized 1 week before experimental start. Bedding was from Tapvei and Enviro -Dri nesting material and cardboard houses (Bio-serv) was offered as enrichment. Mice had free access to domestic quality drinking water and food […]
Mice were monitored twice daily for clinical symptoms of infection or discomfort and euthanized if reaching humane endpoints specified in the ethical permission […]
Dickinson, cat. […] Colony counts of urine were determined immediately. […]
OD540nm of the supernatant was measured and the hemolytic % was calculated following the formula: (OD test compound – OD blank)-(OD positive

Structure (SMILES): N=C(N)NCCC[C@H](NC(=O)[C@H]1NC(=O)[C@H](CO)NC(=O)[C@H]2NC(=O)[C@H](CCC(N)=O)NC(=O)[C@@H](N)Cc3c[nH]c4c(cccc34)O[C@@H]2c2c[nH]c3cc(ccc23)[C@@H]1CCCN)C(=O)N[C@@H](Cc1c[nH]c2ccccc12)C(=O)O [Darobactin D69]
- MIC ([1]; ATCC17978, GFP-tagged A. baumannii ATCC17978): 1 µg/mL (≈ 0.919 µM)
- MIC ([1]; ATCC17978, WT A. baumannii ATCC17978): 2 µg/mL (≈ 1.84 µM)
- MIC E. coli [2]: 1 µg/mL (≈ 0.919 µM)
- MIC A. baumannii [3]: 0.5 µg/mL (≈ 0.459 µM)
- MIC P. aeruginosa [4]: 1 µg/mL (≈ 0.919 µM)
- clearance of A. baumannii infection within zebrafish embryos [5]: completely cleared

Structure (SMILES): C[C@@H](O)[C@H]1C(=O)N2C(C(=O)O)=C(S[C@@H]3CN[C@H](C(=O)N(C)C)C3)[C@H](C)[C@H]12 [MER, Meropenem]
- Δlog CFU/mL Blood compared to SOT (Escherichia coli 106-09): –2.98 log CFU/mL
- Δlog CFU/mL PF compared to SOT (Escherichia coli 106-09): –4.33 log CFU/mL

Structure (SMILES): O=C(O)c1cn(C2CC2)c2cc(N3CCNCC3)c(F)cc2c1=O [Ciprofloxacin, ciprofloxacin]
- MIC (Escherichia coli): 0.063 to 0.125 µg/mL (≈ 0.19 to 0.377 µM)
- MIC (Pseudomonas aeruginosa; ATCCBAA2114, isolate ATCC BAA-2114): 4 µg/mL (≈ 12.1 µM)
- MIC (Pseudomonas aeruginosa; CIP105381, isolate CIP 105381): 0.5 µg/mL (≈ 1.51 µM)
- MIC (Pseudomonas aeruginosa; PAO1, isolate PAO1): 1 µg/mL (≈ 3.02 µM)
- MIC (Pseudomonas aeruginosa; isolate BOR 05): 16 µg/mL (≈ 48.3 µM)
- MIC (Pseudomonas aeruginosa; isolate CAE 02): 4 µg/mL (≈ 12.1 µM)
- MIC (Pseudomonas aeruginosa; isolate CHA): 0.5 µg/mL (≈ 1.51 µM)
- MIC (Pseudomonas aeruginosa; isolate R2255): 0.5 µg/mL (≈ 1.51 µM)
- MIC (Pseudomonas aeruginosa; isolate ROU 01): 16 µg/mL (≈ 48.3 µM)
- MIC (Pseudomonas aeruginosa; isolate SDE 05): 0.5 µg/mL (≈ 1.51 µM)
- MIC (Acinetobacter baumannii; ATCC17978, isolate ATCC17978): 0.5 µg/mL (≈ 1.51 µM)
- MIC (Acinetobacter baumannii; ATCC19187, isolate ATCC19187): 0.5 µg/mL (≈ 1.51 µM)
- MIC (Acinetobacter baumannii; ATCC51432, isolate ATCC51432): 16 µg/mL (≈ 48.3 µM)
- MIC (Acinetobacter baumannii; ATCCBAA747, isolate ATCC BAA-747): 0.5 µg/mL (≈ 1.51 µM)
- MIC (Acinetobacter baumannii; ATCCBAA1605, isolate ATCC BAA-1605): > 32 µg/mL
- MIC (Acinetobacter baumannii; ATCCBAA1710, isolate ATCC BAA-1710): 32 µg/mL (≈ 96.6 µM)
- MIC (Acinetobacter baumannii; ATCCBAA1791, isolate ATCC BAA-1791): > 32 µg/mL
- MIC (Acinetobacter baumannii; ATCCBAA1795, isolate ATCC BAA-1795): > 32 µg/mL
- MIC (Acinetobacter baumannii; ATCCBAA1878, isolate ATCC BAA-1878): 4 to 8 µg/mL (≈ 12.1 to 24.1 µM)
- MIC (Acinetobacter baumannii; CIP105742, isolate CIP 105742): 0.125 to 0.25 µg/mL (≈ 0.377 to 0.754 µM)
- MIC (Acinetobacter baumannii; CIP107292, isolate CIP 107292): > 32 µg/mL
- MIC (Acinetobacter baumannii; NCTC13301, isolate NCTC13301): > 32 µg/mL
- MIC (Acinetobacter baumannii; isolate BM4454): 32 µg/mL (≈ 96.6 µM)
- MIC (Acinetobacter baumannii; isolate G478 (AYE)): > 32 µg/mL
- MIC (Acinetobacter baumannii; isolate R831): 8 µg/mL (≈ 24.1 µM)
- MIC (Acinetobacter baumannii; isolate R835): 32 µg/mL (≈ 96.6 µM)
- MIC (Klebsiella pneumoniae; NCTC13439, isolate NCTC13439): 16 µg/mL (≈ 48.3 µM)
- MIC (Klebsiella pneumoniae; NCTC13442, isolate NCTC13442): 4 µg/mL (≈ 12.1 µM)
- Δlog CFU/g in thigh muscle [6]: –4.06 log CFU/g

- MIC ([7]; ATCC25922, E. coli ATCC25922): 0.5 to 1 µg/mL (≈ 1.05 to 2.09 µM)
- MIC ([7]; E. coli 50639799): 16 to 32 µg/mL (≈ 33.5 to 67 µM)
- MIC ([7]; E. coli C175-94): 2 µg/mL (≈ 4.19 µM)
- MIC ([7]; E. coli DSA443): > 64 µg/mL
- MIC ([7]; E. coli EC 106-09 (ESBL)): 1 to 2 µg/mL (≈ 2.09 to 4.19 µM)
Structure (SMILES): CNC(C)C1CCC(N)C(OC2C(N)CC(N)C(OC3OCC(C)(O)C(NC)C3O)C2O)O1 (stereo not shown) [Gentamicin, gentamicin]
- bacterial burden in urine, bladder, kidney (Escherichia coli C175-94): reduction of bacterial burden below stasis level in all tissues
